Counter-ions that a name gives are not always drawn. Like-named read-outs stand apart in the source and are kept apart here. Marks after values point to notes of the source that are not given here. Values belong to the compound of their own block, whether it stands above or below them.
Experiments:
[1] = target: Ba/F3-FL-TYK2-E957D cells (Homo sapiens, UniProt P29597, E957D, cells depend on it); experiment: Proliferation of Ba/F3-FL-TYK2-E957D cells (CellTiter-Glo); assay type: cell-based, mouse; conditions: 72 hours, read-out: Half maximal inhibitory concentration IC50 for cells Ba/F3-FL-TYK2-E957D
Description: Adenosine triphosphate (ATP) serves as a universal energy carrier in various life processes, representing the smallest unit of energy storage and transfer. The CellTiter-Glo™ Luminescent Cell Viability Assay Kit utilizes luciferase as a detection agent. During the luminescent process, luciferase requires the participation of ATP. By adding CellTiter-Glo™ reagent to the cell culture medium and measuring the luminescence, the light signal was directly proportional to the amount of ATP in the system, and ATP was positively correlated with the number of viable cells. Therefore, cell proliferation can be detected by measuring ATP content using the CellTiter-Glo kit. In this test, the cell lines used were Ba/F3-FL-TYK2-E957D and Ba/F3-TEL-TYK2. Ba/F3-FL-TYK2-E957D cells can stably express the exogenously introduced human TYK2-E957D gene, and the TYK2-E957D gene sequence contains both JH1 and JH2 domains. On the other hand, Ba/F3-TEL-TYK2 cells can stably express the exogenously introduced human TEL-TYK2 gene, and the TEL-TYK2 gene sequence contains only the JH1 domain of TYK2.
The cell lines were cultured in an incubator at 37° C. with 5% CO2. Regular passaging was performed, and cells in the logarithmic growth phase were selected for plating.
• a) The test compounds were prepared into a 10 mM solution with DMSO, and then diluted to 0.3 or 1 mM with DMSO. • b) Preparation of 1000× compound storage plate (tube): The compounds were 3-fold serially diluted from the highest concentration to the lowest concentration, creating 9 different concentrations. • c) Preparation of 20× compound working solution: 49 μL of cell culture medium was added to a flat-bottomed 96-well transparent drug plate. From the 1000× compound storage plate, 1 μL of the compound was pipetted into the cell culture medium in the 96-well transparent drug plate. In the solvent control, 1 μL of DMSO was added. After the compound or DMSO was added, the mixture was homogenized using a multi-channel pipette.
• a) Cells were stained with trypan blue and viable cells were counted to ensure a cell viability of 90% or more. • b) 95 μL of cell suspension (2000 cells/well) was added to each well of the compound assay cell plate, and cell-free culture medium containing 0.1% DMSO was added to the Min control wells. • c) Administration in the compound assay cell plate: 5 μL of 20× compound working solution was added to the cell culture plate. 5 μL of DMSO-cell culture medium mixture was added to the Max control wells. The final concentration of DMSO was 0.1%. • d) The culture plate was then incubated in an incubator at 37° C. with 5% CO2 for 72 hours.
The following steps were conducted in accordance with the instructions of the Promega CellTiter-Glo Luminescent Cell Viability Assay Kit (Promega-G7573). • a) CellTiter-Glo buffer was thawed and brought to room temperature. • b) CellTiter-Glo substrate was also brought to room temperature. • c) CellTiter-Glo buffer was added to a bottle of CellTiter-Glo substrate to dissolve the substrate, thereby preparing CellTiter-Glo working solution. • d) The mixture was slowly vortexed and shaken to be fully dissolved. • e) The cell culture plate was removed and allowed to equilibrate to room temperature for 10 minutes. • f) 50 μL (equal to half the volume of cell culture medium in each well) of CellTiter-Glo working solution was added to each well. • g) The culture plate was shaken on an orbital shaker for 2 minutes to induce cell lysis. • h) The plate was then left at room temperature for 10 minutes to stabilize the luminescent signal. • i) The luminescent signal was detected using a SpectraMax Paradigm plate reader.
Data analysis was conducted using GraphPad Prism 5.0 software. Nonlinear S-curve regression was employed to fit the data and generate dose-response curves. From these curves, the IC50 values were calculated.

[2] = Pharmacokinetic testing in mice; assay type: in vivo, male CD-1 mice; conditions: mouse; for Vd / AUC(0-t) / half-life / C0 / bioavailability / Cmax / Tmax: male, CD-1, plasma; for Vd: read-out: Apparent volume of distribution Vd; for AUC(0-t): read-out: Area under the curve AUC0-last; for half-life: read-out: Half-life T1/2 (converted); for C0: read-out: Starting concentration C0; for bioavailability: read-out: Bioavailability F %; for Cmax: read-out: Peak concentration Cmax; for Tmax: read-out: Time to peak concentration Tmax
Description: The objective was to study the pharmacokinetic behavior of the compound of the present disclosure in mice and evaluate the pharmacokinetic characteristics, using male CD-1 mice aged 7 to 9 weeks as test animals. The drug concentrations in plasma at different time points after a single intravenous injection (IV) and oral administration (PO) of the compound were determined using LC/MS/MS.
The pharmacokinetic characteristics of the compound in rodents following intravenous injection and oral administration were tested using a standard protocol. Test animals were fasted for 10 to 14 hours before administration and allowed to feed 4 hours post-administration. The compound was prepared into a clear solution with the appropriate solvent for both IV (intravenous injection) and PO (oral gavage) administration. The solvent was 10% DMSO+10% solutol+80% (10% HP-β-CD aqueous solution). Whole blood samples were collected within 24 hours, centrifuged at 6000 g for 3 minutes, and the supernatant was separated to obtain plasma samples. Protein precipitation was performed by adding four times the volume of acetonitrile solution containing internal standard to the plasma samples. After centrifugation, the supernatant was added with an equal volume of water and then centrifuged before being subjected to LC-MS/MS analysis for quantifying plasma drug concentration. Pharmacokinetic parameters such as peak concentration, time to peak concentration, clearance, half-life, area under the drug-time curve, and bioavailability were calculated.

[3] = tested on: IL-23-induced psoriasis-like skin lesions; experiment: Mouse psoriasis-like model induced by IL-23; assay type: in vivo, C57BL/6 mice; parameters: Total score for epidermal hyperplasia of ear pinnae / AUC of total score for epidermal hyperplasia of ear pinnae / Pathological score: Degree of keratinization / Pathological score: Epidermal thickness / Pathological score: Dermal thickness / Pathological score: Inflammatory cell infiltration / Comprehensive pathological score: scale not given here
Description: The purpose of this experiment was to evaluate the prophylactic and therapeutic effect of the test substance on IL-23-induced psoriasis-like skin lesions in mice by intradermal injection of IL-23 into the ear pinnae in a psoriasis-like skin lesion model.
Female C57BL/6 mice of qualified body weight were randomly divided into groups, with 6 mice per group. The grouping and administration information was as follows. The groups were: blank control group, model group, positive control Ustekinumab (5 mg/kg) group, WX-011A hydrochloride (30, 50 mg/kg) group, and WX-020 sulfate (30, 50 mg/kg) group. Except for the blank control group, the animals in the other groups received an intradermal injection of IL-23 (3 μg/10 μL/mouse/day, QD) in the right ear for 8 consecutive days (Day 0 to Day 7). The blank control group received an intradermal injection of an equal volume of saline solution (10 μL/mouse/day, QD) in the right ear for 8 consecutive days (Day 0 to Day 7). Concurrent with model induction, the solvent or test drug was orally administered twice a day (Bid) at 6-hour intervals for 8 consecutive days (Day 0 to Day 7). The positive control was subcutaneously injected on Day 0 and Day 3 (a total of 2 doses). During the administration period, the body weight of the animals was monitored every two days. On Day 0, Day 2, Day 4, Day 6 (all before IL-23 injection), and Day 8, the thickness of the right ear of the mice was measured, and the appearance of the ear pinnae was observed and scored.
The compounds were all prepared into a clear solution with 10% DMSO+[…] as a solvent for PO (oral gavage) administration. Administration volume parameters: 10 mL/kg based on the body weight of the mice.
After grouping, IL-23 (3 μg/10 μL/mouse/day, QD) was injected intradermally into the right ears of the mice for 8 consecutive days (Day 0 to Day 7). Measurements of the thickness of the right ear and observations and scoring of the appearance of the ear pinnae were performed on Day 0, Day 2, Day 4, Day 6 (all before IL-23 injection), and Day 8. At the end of the experiment (Day 8), the left ear tissues of the mice from groups G4 to G10 (3 animals per group at each time point) were collected. The right ear, which had been modeled, was excised, an 8 mm ear punch was taken along the edge of the pinna, and its weight was measured. The excised right ear tissues were fixed in formalin for histopathological examination (H&E staining).
Concurrent with model induction, corresponding drug treatment was given for administration. Except for the positive control drug (Ustekinumab), which was subcutaneously injected on Day 0 and Day 3 (once a day), control and test drugs for each dose group were orally administered by gavage twice a day at 6-hour intervals for 8 consecutive days (Day 0 to Day 7).
The pathological scoring of mouse ear tissue sections was conducted according to the criteria in Table 33.
The experimental data are represented as Mean±SD; statistical analysis was performed using IBM SPSS Statistics 21, with p<0.05 considered to indicate a statistically significant difference between the two groups. The effect of the test substance on the thickness of mouse ears in the IL-23 induced mouse pinna epidermal hyperplasia model is shown in Table 34. The effect of the test substance on the total score and AUC for […] induced mouse pinna epidermal hyperplasia is shown in Table 35.

[4] = 5 mg/kg SC on Day 0 and Day 3, Day 0
[5] = 5 mg/kg SC on Day 0 and Day 3, Day 2
[6] = 5 mg/kg SC on Day 0 and Day 3, Day 4
[7] = 5 mg/kg SC on Day 0 and Day 3, Day 6
[8] = 5 mg/kg SC on Day 0 and Day 3, Day 8
[9] = 5 mg/kg SC, right ear H&E sections

Chain of Ba/F3-FL-TYK2-E957D cells (P29597 whole entry E957D): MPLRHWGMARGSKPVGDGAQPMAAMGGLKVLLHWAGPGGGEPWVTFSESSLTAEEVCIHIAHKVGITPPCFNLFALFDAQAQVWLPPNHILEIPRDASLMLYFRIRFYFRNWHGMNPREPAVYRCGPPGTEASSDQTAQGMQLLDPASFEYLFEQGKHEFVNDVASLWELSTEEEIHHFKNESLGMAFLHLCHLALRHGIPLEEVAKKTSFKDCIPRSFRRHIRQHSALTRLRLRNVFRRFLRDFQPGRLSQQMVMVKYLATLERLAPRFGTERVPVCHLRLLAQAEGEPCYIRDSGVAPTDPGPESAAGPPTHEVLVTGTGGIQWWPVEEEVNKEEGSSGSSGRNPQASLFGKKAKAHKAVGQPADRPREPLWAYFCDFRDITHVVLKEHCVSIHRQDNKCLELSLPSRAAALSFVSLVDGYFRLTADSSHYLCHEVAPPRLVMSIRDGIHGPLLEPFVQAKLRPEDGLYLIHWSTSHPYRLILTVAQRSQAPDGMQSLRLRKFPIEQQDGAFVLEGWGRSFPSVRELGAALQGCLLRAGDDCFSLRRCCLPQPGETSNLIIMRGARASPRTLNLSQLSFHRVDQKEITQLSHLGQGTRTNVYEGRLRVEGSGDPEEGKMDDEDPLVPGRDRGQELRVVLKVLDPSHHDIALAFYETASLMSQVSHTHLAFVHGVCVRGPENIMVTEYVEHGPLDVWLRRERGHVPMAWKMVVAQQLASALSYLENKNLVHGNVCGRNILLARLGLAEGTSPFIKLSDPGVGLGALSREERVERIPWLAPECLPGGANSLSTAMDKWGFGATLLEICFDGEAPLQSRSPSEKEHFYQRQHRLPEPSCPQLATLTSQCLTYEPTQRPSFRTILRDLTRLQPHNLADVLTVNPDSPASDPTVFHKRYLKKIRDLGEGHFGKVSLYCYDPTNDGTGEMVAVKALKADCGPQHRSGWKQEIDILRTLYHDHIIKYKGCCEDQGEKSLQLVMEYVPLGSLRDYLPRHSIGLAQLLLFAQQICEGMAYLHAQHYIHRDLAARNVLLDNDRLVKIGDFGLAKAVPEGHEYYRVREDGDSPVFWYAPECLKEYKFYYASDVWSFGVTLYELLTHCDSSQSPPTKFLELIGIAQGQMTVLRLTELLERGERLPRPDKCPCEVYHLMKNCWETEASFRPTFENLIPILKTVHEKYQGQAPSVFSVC

Compound: CNC(=O)c1nnc(NC(=O)C2CC2)cc1Nc1cccc(-c2ccc(S(=N)(=O)C(C)C)nn2)c1OC (single isomer, unassigned) [WX-036A]
GI50 [1]: 8.3 nM

Compound: CNC(=O)c1nnc(NC(=O)C2CC2)cc1Nc1cccc(-c2ccc(S(=N)(=O)C(C)C)nn2)c1OC (single isomer, unassigned) [WX-036B]
GI50 [1]: 17.3 nM

Compound: CNC(=O)c1nnc(NC(=O)C2CC2)cc1Nc1cccc(-c2ccc(S(=N)(=O)C(C)C)nc2)c1OC (single isomer, unassigned) [WX-037A]
GI50 [1]: 15 nM

Compound: CCN=S(=O)(c1cnc(-c2cccc(Nc3cc(NC(=O)C4CC4)nnc3C(=O)NC)c2OC)nc1)C(C)C (centres unmarked) [Hydrochloride of WX-015]
GI50 [1]: 13 nM

Compound: CCN=S(=O)(c1ccc(-c2cccc(Nc3cc(NC(=O)C4CC4)nnc3C(=O)NC)c2OC)nc1)C(C)C (centres unmarked) [Hydrochloride of WX-016]
GI50 [1]: 11.7 nM

Compound: CNC(=O)c1nnc(NC(=O)C2CC2)cc1Nc1cccc(-c2ncc(S(=N)(=O)C(C)C)cn2)c1OC (centres unmarked) [WX-011]
Vd ([2]; IV 1 mg/kg): 0.7 L/kg | AUC(0-t) ([2]; IV 1 mg/kg): 4.79 µM·h | half-life ([2]; IV 1 mg/kg): 3.2 h | C0 ([2]; IV 1 mg/kg): 5.42 µM | AUC(0-t) ([2]; PO 10 mg/kg): 25 µM·h | bioavailability ([2]; PO 10 mg/kg): 52% | Cmax ([2]; PO 10 mg/kg): 10.2 µM | Tmax ([2]; PO 10 mg/kg): 0.5 h | Apparent clearance Cl ([2]; IV 1 mg/kg): 6.6 mL/min/kg

Compound: CNC(=O)c1nnc(NC(=O)C2CC2)cc1Nc1cccc(-c2ccc(S(=N)(=O)C(C)C)cn2)c1OC (centres unmarked) [WX-012]
Vd ([2]; IV 1 mg/kg): 2.9 L/kg | AUC(0-t) ([2]; IV 1 mg/kg): 2.46 µM·h | half-life ([2]; IV 1 mg/kg): 4.4 h | C0 ([2]; IV 1 mg/kg): 2.75 µM | AUC(0-t) ([2]; PO 10 mg/kg): 16.7 µM·h | bioavailability ([2]; PO 10 mg/kg): 68% | Cmax ([2]; PO 10 mg/kg): 12.4 µM | Tmax ([2]; PO 10 mg/kg): 0.3 h | Apparent clearance Cl ([2]; IV 1 mg/kg): 12.8 mL/min/kg

Compound: Ustekinumab: positive control Ustekinumab (anti-IL-12/IL-23), Selleck, subcutaneously injected [reference compound]
Ear thickness (mm) [3, 4]: 0.196 mm | Total score for epidermal hyperplasia of ear pinnae [3, 4]: 0.00 | AUC of total score for epidermal hyperplasia of ear pinnae ([3]; 5 mg/kg SC on Day 0 and Day 3, Day 0 to Day 8): 2.83** | Ear thickness (mm) [3, 5]: 0.277* mm | Total score for epidermal hyperplasia of ear pinnae [3, 5]: 0.00 | Ear thickness (mm) [3, 6]: 0.288** mm | Total score for epidermal hyperplasia of ear pinnae [3, 6]: 0.33* | Ear thickness (mm) [3, 7]: 0.316** mm | Total score for epidermal hyperplasia of ear pinnae [3, 7]: 0.67** | Ear thickness (mm) [3, 8]: 0.329* mm | Total score for epidermal hyperplasia of ear pinnae [3, 8]: 0.83** | Comprehensive pathological score [3, 9]: 3.50** | Pathological score: Degree of keratinization [3, 9]: 0.50** | Pathological score: Dermal thickness [3, 9]: 0.67 | Pathological score: Epidermal thickness [3, 9]: 1.17** | Pathological score: Inflammatory cell infiltration [3, 9]: 1.17**

Next, values leading:

GI50 [1]: 17 nM
Compound: CNC(=O)c1nnc(NC(=O)C2CC2)cc1Nc1cccc(-c2ccc(S(=N)(=O)C(C)C)nc2)c1OC (single isomer, unassigned) [WX-037B]

GI50 [1]: 10.6 nM
Compound: [2H]C([2H])([2H])NC(=O)c1cnc(NC(=O)C2CC2)cc1Nc1cccc(-c2ncc(S(=O)(=O)N3CCCC3)cn2)c1OC [Hydrochloride of WX-006]

GI50 [1]: 9.5 nM
Compound: [2H]C([2H])([2H])NC(=O)c1cnc(NC(=O)C2CC2)cc1Nc1cccc(-c2ccc(S(C)(=O)=O)cc2)c1OC [Hydrochloride of WX-007]

GI50 [1]: 16 nM
Compound: [2H]C([2H])([2H])NC(=O)c1nnc(NC(=O)C2CC2)cc1Nc1cccc(-c2ccc(P(C)(C)=O)cc2)c1OC [Hydrochloride of WX-008]

GI50 [1]: 12.6 nM
Compound: [2H]C([2H])([2H])NC(=O)c1cnc(NC(=O)C2CC2)cc1Nc1cccc(-c2ccc(S(C)(=O)=NC)cc2)c1OC (centres unmarked) [Hydrochloride of WX-010]
